The results in this text go back to patent US20250243180A1, “TARGETED PROTEIN DEGRADATION” (Monte Rosa Therapeutics AG, priority 2023, published 2025).

Experiment [1] addresses NEK7 (Homo sapiens (Human), UniProt Q8TDX7+Q96SW2). The experiment in a line: NEK7 NanoBiT degradation assay in Cal51 NEK7 NanoBiT cell line. The conditions noted are these: Cal51 NEK7 NanoBiT cells, 24 hours; for Dmax: CAL-51. The class given is cell-based. A digest of the protocol: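 Cal51 cells with CRISPR knock-in HiBiT-tagged endogenous NEK7 plus stable LgBiT, in live-cell Endurazine medium, seeded 16 h before dosing. Compounds at final 1 μM to 0.05 nM for 24 h at 37 °C, then luminescence read. Response normalized to plate controls and fitted with a 4-parameter logistic giving EC50.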

Experiment [2] has as its target CRBN-DDB1 (Homo sapiens (Human), UniProt Q96SW2). The experiment in a line: Compound binding to CRBN by HTRF assay. A digest of the protocol:
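HTRF displacement of Cy5-thalidomide probe (100 nM) from His-tagged CRBN-DDB1 (2.5 nM) with anti-His terbium cryptate, in HEPES/NaCl/TCEP/EDTA/Tween20 buffer; 11-point 1:3 dilution series, 30 min at ambient temperature. Signal (665/620 nm) normalized to lenalidomide and DMSO controls; EC50 fitted, Ki by Cheng-Prusoff from geometric mean EC50.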

The mark [3] stands for this setting: NEK7 degradation, read-out: NanoBiT Dmax.
Setting [4] is: NEK7 degradation, read-out: NanoBiT DC50.

SMILES strings stand for the structures. Like-named read-outs stand apart in the source and are kept apart here.

One may read the Dmax as the greatest extent of degradation seen. As usually defined, the DC50 is the concentration giving 50% degradation. In general, EC50 refers to the concentration giving half of the maximal effect.

Sequence of CRBN-DDB1 (Q96SW2 whole entry): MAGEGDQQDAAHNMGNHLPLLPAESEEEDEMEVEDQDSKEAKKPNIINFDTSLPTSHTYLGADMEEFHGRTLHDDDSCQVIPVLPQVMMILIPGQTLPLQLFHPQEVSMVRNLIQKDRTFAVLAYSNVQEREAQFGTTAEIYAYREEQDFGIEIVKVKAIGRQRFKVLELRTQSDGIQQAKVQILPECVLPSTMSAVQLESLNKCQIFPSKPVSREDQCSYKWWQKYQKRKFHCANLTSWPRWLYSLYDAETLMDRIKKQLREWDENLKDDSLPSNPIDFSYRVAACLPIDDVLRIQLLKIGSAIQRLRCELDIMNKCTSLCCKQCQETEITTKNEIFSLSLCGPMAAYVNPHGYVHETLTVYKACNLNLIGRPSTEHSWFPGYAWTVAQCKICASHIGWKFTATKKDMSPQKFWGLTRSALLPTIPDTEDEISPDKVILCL
Sequence of CRBN-DDB1 (Q16531 whole entry partner): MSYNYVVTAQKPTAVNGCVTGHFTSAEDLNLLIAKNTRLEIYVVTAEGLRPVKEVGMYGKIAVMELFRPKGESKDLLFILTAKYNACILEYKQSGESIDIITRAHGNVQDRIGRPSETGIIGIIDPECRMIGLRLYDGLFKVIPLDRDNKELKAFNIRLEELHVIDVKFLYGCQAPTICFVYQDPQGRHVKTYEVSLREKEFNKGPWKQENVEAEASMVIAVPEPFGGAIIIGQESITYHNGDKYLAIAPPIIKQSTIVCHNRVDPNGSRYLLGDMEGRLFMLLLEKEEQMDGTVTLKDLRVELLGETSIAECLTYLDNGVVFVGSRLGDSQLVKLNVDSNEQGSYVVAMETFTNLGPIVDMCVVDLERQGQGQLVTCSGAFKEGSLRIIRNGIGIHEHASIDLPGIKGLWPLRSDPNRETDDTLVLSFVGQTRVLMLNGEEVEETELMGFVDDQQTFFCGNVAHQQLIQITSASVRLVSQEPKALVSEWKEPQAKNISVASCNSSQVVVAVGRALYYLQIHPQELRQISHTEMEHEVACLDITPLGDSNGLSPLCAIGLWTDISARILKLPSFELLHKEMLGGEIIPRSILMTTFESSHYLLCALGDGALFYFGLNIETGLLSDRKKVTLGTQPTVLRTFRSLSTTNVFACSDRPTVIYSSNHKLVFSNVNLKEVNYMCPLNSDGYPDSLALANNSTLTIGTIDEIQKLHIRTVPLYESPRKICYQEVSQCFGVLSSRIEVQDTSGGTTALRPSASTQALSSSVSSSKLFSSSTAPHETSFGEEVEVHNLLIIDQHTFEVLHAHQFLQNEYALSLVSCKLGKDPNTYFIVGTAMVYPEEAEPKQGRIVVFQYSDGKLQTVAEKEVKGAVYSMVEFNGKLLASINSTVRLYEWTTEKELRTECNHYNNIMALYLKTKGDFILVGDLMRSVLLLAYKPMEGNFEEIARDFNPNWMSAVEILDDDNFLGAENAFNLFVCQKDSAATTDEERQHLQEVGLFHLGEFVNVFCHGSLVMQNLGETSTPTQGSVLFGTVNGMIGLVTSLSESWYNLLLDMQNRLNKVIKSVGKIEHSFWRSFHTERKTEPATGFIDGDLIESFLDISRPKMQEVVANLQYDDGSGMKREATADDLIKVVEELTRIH
Sequence of NEK7 (Q8TDX7 whole entry): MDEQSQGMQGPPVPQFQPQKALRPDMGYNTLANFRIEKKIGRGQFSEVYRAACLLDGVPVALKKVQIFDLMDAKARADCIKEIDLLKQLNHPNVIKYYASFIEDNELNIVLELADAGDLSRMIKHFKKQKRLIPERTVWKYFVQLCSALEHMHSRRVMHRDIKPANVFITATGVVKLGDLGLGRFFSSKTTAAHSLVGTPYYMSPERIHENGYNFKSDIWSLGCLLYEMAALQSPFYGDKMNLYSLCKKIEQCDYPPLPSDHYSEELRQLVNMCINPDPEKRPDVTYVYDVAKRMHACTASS
Sequence of NEK7 (Q96SW2 whole entry): as the sequence (Q96SW2 whole entry) above
Sequence of NEK7 (Q16531 2-1140 partner): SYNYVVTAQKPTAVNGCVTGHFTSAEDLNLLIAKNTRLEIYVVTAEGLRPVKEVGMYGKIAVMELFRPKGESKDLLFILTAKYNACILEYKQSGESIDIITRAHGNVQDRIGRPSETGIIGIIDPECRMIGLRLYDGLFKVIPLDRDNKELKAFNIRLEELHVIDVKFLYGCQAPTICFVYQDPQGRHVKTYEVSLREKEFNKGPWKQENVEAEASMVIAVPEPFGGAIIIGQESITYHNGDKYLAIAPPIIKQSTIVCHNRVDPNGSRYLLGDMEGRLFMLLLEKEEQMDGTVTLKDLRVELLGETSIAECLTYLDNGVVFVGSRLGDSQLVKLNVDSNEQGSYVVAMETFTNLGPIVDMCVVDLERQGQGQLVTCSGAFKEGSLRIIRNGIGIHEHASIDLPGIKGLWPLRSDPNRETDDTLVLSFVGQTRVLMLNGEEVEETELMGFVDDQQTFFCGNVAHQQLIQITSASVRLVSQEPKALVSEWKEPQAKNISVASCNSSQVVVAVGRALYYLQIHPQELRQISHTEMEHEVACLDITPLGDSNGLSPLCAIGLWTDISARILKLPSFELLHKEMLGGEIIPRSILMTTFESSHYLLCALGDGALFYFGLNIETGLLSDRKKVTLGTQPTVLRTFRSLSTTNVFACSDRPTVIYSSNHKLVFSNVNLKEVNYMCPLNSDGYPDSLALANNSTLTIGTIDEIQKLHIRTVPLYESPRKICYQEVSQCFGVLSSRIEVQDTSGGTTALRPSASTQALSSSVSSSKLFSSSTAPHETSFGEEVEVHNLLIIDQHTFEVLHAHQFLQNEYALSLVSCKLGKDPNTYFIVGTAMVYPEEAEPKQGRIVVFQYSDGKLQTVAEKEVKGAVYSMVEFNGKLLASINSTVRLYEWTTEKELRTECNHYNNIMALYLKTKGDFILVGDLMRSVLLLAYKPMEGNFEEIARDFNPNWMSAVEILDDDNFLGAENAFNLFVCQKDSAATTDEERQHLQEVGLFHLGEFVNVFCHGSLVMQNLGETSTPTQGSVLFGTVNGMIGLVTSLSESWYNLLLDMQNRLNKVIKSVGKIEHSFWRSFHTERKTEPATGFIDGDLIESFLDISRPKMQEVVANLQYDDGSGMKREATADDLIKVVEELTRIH

On to `CC(C)(C(=O)NCc1cc(Cl)c(C2CCC(=O)NC2=O)c(Cl)c1)c1cnc(F)nc1` (stereo not drawn) [Compound 5, N-(3,5-dichloro-4-(2,6-dioxopiperidin-3-yl)benzyl)-2-(2-fluoropyrimidin-5-yl)-2-methylpropanamide], for which the results for the Dmax in experiment [1] (read-out: NEK7 NanoBiT Dmax) and in experiment [1] (setting [3]) were 63% and 50 to 75%, respectively. The DC50 in experiment [1] (read-out: NEK7 NanoBiT DC50) was 133 nM; in experiment [1] (setting [4]), 100 to 1000 nM. The EC50 in experiment [2] is 120 nM; in experiment [2] (HTRF class, Cereblon binding), 100 to 1000 nM.

As to `Cc1nc(CNC(=O)C(C)(C)c2ccccc2)cc(Cl)c1C1CCC(=O)NC1=O` (stereo not drawn) [Compound 239, N-((4-chloro-5-(2,6-dioxopiperidin-3-yl)-6-methylpyridin-2-yl)methyl)-2-methyl-2-phenylpropanamide], the figures for the Dmax in experiment [1] (read-out: NEK7 NanoBiT Dmax) and in experiment [1] (setting [3]) were 47% and at most 50%, respectively. The DC50 in experiment [1] (read-out: NEK7 NanoBiT DC50) was 909 nM; in experiment [1] (setting [4]) it was 100 to 1000 nM. The EC50 in experiment [2] is 660 nM; in experiment [2] (HTRF class, Cereblon binding), 100 to 1000 nM.

As to `CC(F)(F)c1ccc(C(C)(C)C(=O)NCc2cc(F)c(C3CCC(=O)NC3=O)c(Cl)c2)nn1` (stereo not drawn) [Compound 277], the Dmax in experiment [1] (read-out: NEK7 NanoBiT Dmax) is 61%; in experiment [1] (setting [3]), 50 to 75%. Further, the half-maximal degradation concentration (DC50) in experiment [1] (read-out: NEK7 NanoBiT DC50) was 155 nM; in experiment [1] (setting [4]), 100 to 1000 nM. Moreover, the EC50 is 180 nM in experiment [2] and 100 to 1000 nM in experiment [2] (HTRF class, Cereblon binding).

Consider `Cc1cnc(C(C)(CO)C(=O)NCc2cc(Cl)c(C3CCC(=O)NC3=O)c(Cl)c2)nc1` (stereo not drawn) [Compound 241, N-(3,5-dichloro-4-(2,6-dioxopiperidin-3-yl)benzyl)-3-hydroxy-2-methyl-2-(5-methylpyrimidin-2-yl)propanamide], for which the figures for the Dmax in experiment [1] (read-out: NEK7 NanoBiT Dmax) and in experiment [1] (setting [3]) were 86% and over 75%, respectively. Also, the half-maximal degradation concentration (DC50) in experiment [1] (read-out: NEK7 NanoBiT DC50) is 15 nM; in experiment [1] (setting [4]), at most 100 nM. Besides, the concentration giving a half-maximal response (EC50) was 140 nM in experiment [2] and 100 to 1000 nM in experiment [2] (HTRF class, Cereblon binding).

As to `CC(C)(C(=O)NCc1cc(Cl)c(C2CCC(=O)NC2=O)c(Cl)c1)c1cnc(OC(F)(F)F)cn1` (stereo not drawn) [Compound 259], the figures for the Dmax in experiment [1] (read-out: NEK7 NanoBiT Dmax) and in experiment [1] (setting [3]) were 91% and over 75%, respectively. Besides, the results for the DC50 in experiment [1] (read-out: NEK7 NanoBiT DC50) and in experiment [1] (setting [4]) were 6 nM and at most 100 nM, respectively. In addition, the half-maximal effective concentration (EC50) is 90 nM in experiment [2] and at most 100 nM in experiment [2] (HTRF class, Cereblon binding).

Turning to `CC(C)(C(=O)NCc1cc(Cl)c(C2CCC(=O)NC2=O)c(Cl)c1)c1ccc2nonc2c1` (stereo not drawn) [Compound 81], the maximal degradation (Dmax) in experiment [1] (read-out: NEK7 NanoBiT Dmax) was 98%; in experiment [1] (setting [3]), over 75%. For the same compound, the 50% degradation concentration (DC50) in experiment [1] (read-out: NEK7 NanoBiT DC50) was 0.4 nM; in experiment [1] (setting [4]), at most 100 nM. Further, the concentration for a half-maximal effect (EC50) in experiment [2] was 70 nM; in experiment [2] (HTRF class, Cereblon binding) it was at most 100 nM.

As to `CC(C)(C(=O)NCc1cc(Cl)c(C2CCC(=O)NC2=O)c(Cl)c1)c1cnc(CO)cn1` (stereo not drawn) [Compound 206], the figures for the Dmax in experiment [1] (read-out: NEK7 NanoBiT Dmax) and in experiment [1] (setting [3]) were 85% and over 75%, respectively. Further, the DC50 was 18 nM in experiment [1] (read-out: NEK7 NanoBiT DC50) and at most 100 nM in experiment [1] (setting [4]). Further, the EC50 is 100 nM in experiment [2] and 100 to 1000 nM in experiment [2] (HTRF class, Cereblon binding).

On to `CC(C)(C(=O)NCc1cc(Cl)c(C2CCC(=O)NC2=O)c(Cl)c1)c1nccc(CO)n1` (stereo not drawn) [Compound 215], for which the Dmax in experiment [1] (read-out: NEK7 NanoBiT Dmax) is 65%; in experiment [1] (setting [3]), 50 to 75%. Moreover, the values for the DC50 in experiment [1] (read-out: NEK7 NanoBiT DC50) and in experiment [1] (setting [4]) were 118 nM and 100 to 1000 nM, respectively. Further, the EC50 in experiment [2] is 120 nM; in experiment [2] (HTRF class, Cereblon binding), 100 to 1000 nM.

Take `Cc1nnc(C2(C(=O)NCc3cc(Cl)c(C4CCC(=O)NC4=O)c(Cl)c3)CCC2)o1` (stereo not drawn) [Compound 226, N-(3,5-dichloro-4-(2,6-dioxopiperidin-3-yl)benzyl)-1-(5-methyl-1,3,4-oxadiazol-2-yl)-cyclobutane-1-carboxamide]: the values for the Dmax in experiment [1] (read-out: NEK7 NanoBiT Dmax) and in experiment [1] (setting [3]) were 54% and 50 to 75%, respectively. Also, the 50% degradation concentration (DC50) was 556 nM in experiment [1] (read-out: NEK7 NanoBiT DC50) and 100 to 1000 nM in experiment [1] (setting [4]). In addition, the half-maximal effective concentration (EC50) was 130 nM in experiment [2] and 100 to 1000 nM in experiment [2] (HTRF class, Cereblon binding).

On to `CC1(C(=O)NCc2cc(Cl)c(C3CCC(=O)NC3=O)c(Cl)c2)COc2ccccc2O1` (stereo not drawn) [Compound 47], for which the Dmax in experiment [1] (read-out: NEK7 NanoBiT Dmax) was 85%; in experiment [1] (setting [3]), over 75%. Moreover, the DC50 was 4 nM in experiment [1] (read-out: NEK7 NanoBiT DC50) and at most 100 nM in experiment [1] (setting [4]). Also, the EC50 in experiment [2] is 30 nM; in experiment [2] (HTRF class, Cereblon binding), at most 100 nM.

In the case of `Cc1ccnc(C(C)(C)C(=O)NCc2cc(Cl)c(C3CCC(=O)NC3=O)c(Cl)c2)n1` (stereo not drawn) [Compound 160], the Dmax in experiment [1] (read-out: NEK7 NanoBiT Dmax) was 76%; in experiment [1] (setting [3]), over 75%. Moreover, the DC50 in experiment [1] (read-out: NEK7 NanoBiT DC50) is 34 nM; in experiment [1] (setting [4]) it was at most 100 nM. The EC50 was 200 nM in experiment [2] and 100 to 1000 nM in experiment [2] (HTRF class, Cereblon binding).

For `CC(C)(C(=O)NCc1cc(Cl)c(C2CCC(=O)NC2=O)c(Cl)c1)c1ncc(C2COC2)cn1` (stereo not drawn) [Compound 178], the figures for the Dmax in experiment [1] (read-out: NEK7 NanoBiT Dmax) and in experiment [1] (setting [3]) were 66% and 50 to 75%, respectively. In addition, the DC50 is 95 nM in experiment [1] (read-out: NEK7 NanoBiT DC50) and at most 100 nM in experiment [1] (setting [4]). Also, the EC50 in experiment [2] is 290 nM; in experiment [2] (HTRF class, Cereblon binding), 100 to 1000 nM.
